Laboratory results: ChEMBL document CHEMBL3862010, “N-Arylsulfonyl-α-amino carboxamides are potent and selective inhibitors of the chemokine receptor CCR10 that show efficacy in the murine DNFB model of contact hypersensitivity” (Bioorg Med Chem Lett, 2016)

Tests used:
[1] = target: C-X-C chemokine receptor type 3 (Homo sapiens, UniProt P49682); experiment: Antagonist activity at human CXCR3 assessed as inhibition of IP10-induced calcium flux; format: functional
[2] = target: T1, C-C chemokine receptor type 10 (Homo sapiens, UniProt P46092); experiment: Antagonist activity at human CCR10 expressed in HEK cell membranes assessed as inhibition of human CCL27-dependent europium-labeled GTP binding; parameters: species or system HEK293
T1 sequence (P46092 whole entry): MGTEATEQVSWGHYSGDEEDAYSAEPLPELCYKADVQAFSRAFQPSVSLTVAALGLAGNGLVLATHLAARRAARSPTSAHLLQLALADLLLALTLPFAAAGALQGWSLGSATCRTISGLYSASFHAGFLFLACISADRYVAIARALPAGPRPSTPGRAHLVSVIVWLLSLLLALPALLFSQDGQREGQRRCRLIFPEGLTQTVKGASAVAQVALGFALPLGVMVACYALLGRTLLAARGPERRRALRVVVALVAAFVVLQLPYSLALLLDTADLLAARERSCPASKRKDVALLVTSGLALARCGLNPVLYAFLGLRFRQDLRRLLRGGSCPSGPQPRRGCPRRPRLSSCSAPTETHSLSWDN

Histamine H4 receptor = Histamine H4 receptor (Homo sapiens, UniProt Q9H3N8); experiment: Antagonist activity at human histamine H4 receptor assessed as inhibition of histamine-induced calcium flux; format: functional
Chain of Histamine H4 receptor (Q9H3N8 whole entry): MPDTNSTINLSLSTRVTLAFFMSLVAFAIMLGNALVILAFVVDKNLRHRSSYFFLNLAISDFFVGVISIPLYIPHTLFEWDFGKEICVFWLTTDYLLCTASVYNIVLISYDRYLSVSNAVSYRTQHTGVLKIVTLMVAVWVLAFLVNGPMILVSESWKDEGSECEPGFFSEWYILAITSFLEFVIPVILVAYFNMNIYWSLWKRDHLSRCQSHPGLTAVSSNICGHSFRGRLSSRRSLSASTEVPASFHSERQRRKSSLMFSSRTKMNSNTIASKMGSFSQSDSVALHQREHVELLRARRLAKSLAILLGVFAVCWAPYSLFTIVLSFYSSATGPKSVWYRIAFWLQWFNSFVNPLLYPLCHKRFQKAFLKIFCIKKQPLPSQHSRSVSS

[3] = target: C-C chemokine receptor type 2 (Homo sapiens, UniProt P41597); experiment: Antagonist activity at human CCR2 assessed as inhibition of MCP1-induced calcium flux; format: functional
Chain of C-C chemokine receptor type 2 (P41597 whole entry): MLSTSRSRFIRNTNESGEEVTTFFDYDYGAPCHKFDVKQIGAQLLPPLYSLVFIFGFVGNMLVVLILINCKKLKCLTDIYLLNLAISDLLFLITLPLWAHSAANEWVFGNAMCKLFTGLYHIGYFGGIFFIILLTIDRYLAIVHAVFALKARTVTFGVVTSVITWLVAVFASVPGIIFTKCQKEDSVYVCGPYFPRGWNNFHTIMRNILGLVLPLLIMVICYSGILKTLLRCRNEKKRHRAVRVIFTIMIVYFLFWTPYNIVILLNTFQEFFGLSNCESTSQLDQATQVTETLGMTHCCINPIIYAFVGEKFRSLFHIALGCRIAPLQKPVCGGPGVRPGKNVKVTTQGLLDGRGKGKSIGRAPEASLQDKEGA

[4] = target: T1, C-C chemokine receptor type 10; experiment: Antagonist activity at human CCR10 expressed in CHOK1 cells coexpressing aequorin/Galphaq assessed as inhibition of human CCL28-dependent calcium flux by FLIPR assay; format: functional, cell-based, CHO-K1
[5] = target: T1, C-C chemokine receptor type 10; experiment: Antagonist activity at human CCR10 expressed in CHOK1 cells coexpressing aequorin/Galphaq assessed as inhibition of human CCL28-dependent calcium flux by chemiluminescence assay; format: functional, cell-based, CHO-K1
[6] = Clearance in mouse liver microsomes relative to hepatic blood flow; format: ADME; conditions: read-out: CLH
[7] = target: T2, C-C chemokine receptor type 10 (Mus musculus, UniProt Q9JL21); experiment: Antagonist activity at mouse CCR10 expressed in CHOK1 cells coexpressing aequorin/Galphaq assessed as inhibition of CCL27-dependent calcium flux in presence of coelenterazine H by chemiluminescence assay; format: functional, cell-based, CHO-K1
T2 sequence (Q9JL21 whole entry): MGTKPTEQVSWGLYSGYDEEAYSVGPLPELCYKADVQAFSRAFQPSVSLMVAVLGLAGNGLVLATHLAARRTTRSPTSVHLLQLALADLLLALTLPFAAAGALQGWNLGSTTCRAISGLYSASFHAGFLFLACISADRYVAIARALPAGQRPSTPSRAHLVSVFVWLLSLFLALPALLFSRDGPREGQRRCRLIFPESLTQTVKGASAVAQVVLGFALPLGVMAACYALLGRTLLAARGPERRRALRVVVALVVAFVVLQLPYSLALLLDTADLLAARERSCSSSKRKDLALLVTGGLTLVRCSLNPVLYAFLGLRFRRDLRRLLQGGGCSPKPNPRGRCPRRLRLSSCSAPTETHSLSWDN

[8] = target: C-C chemokine receptor type 5 (Homo sapiens, UniProt P51681); experiment: Antagonist activity at human CCR5 assessed as inhibition of RANTES-induced calcium flux; format: functional
Chain of C-C chemokine receptor type 5 (P51681 whole entry): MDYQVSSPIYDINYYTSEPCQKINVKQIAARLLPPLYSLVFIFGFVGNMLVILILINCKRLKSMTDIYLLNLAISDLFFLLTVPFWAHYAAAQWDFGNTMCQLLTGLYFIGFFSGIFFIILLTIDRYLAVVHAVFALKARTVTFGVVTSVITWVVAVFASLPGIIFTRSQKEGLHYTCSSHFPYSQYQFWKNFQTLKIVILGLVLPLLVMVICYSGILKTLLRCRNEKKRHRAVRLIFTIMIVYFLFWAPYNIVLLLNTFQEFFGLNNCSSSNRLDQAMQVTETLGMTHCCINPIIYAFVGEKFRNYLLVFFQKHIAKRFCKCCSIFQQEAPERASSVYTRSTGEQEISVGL

[9] = target: T1, C-C chemokine receptor type 10; experiment: Antagonist activity at human CCR10 expressed in CHOK1 cells coexpressing aequorin/Galphaq assessed as inhibition of CCL27-dependent calcium flux in presence of coelenterazine H by FLIPR assay; format: functional, cell-based, CHO-K1
[10] = target: C-X-C chemokine receptor type 2 (Homo sapiens, UniProt P25025); experiment: Antagonist activity at human CXCR2 assessed as inhibition of GROalpha-induced calcium flux; format: functional
Chain of C-X-C chemokine receptor type 2 (P25025 whole entry): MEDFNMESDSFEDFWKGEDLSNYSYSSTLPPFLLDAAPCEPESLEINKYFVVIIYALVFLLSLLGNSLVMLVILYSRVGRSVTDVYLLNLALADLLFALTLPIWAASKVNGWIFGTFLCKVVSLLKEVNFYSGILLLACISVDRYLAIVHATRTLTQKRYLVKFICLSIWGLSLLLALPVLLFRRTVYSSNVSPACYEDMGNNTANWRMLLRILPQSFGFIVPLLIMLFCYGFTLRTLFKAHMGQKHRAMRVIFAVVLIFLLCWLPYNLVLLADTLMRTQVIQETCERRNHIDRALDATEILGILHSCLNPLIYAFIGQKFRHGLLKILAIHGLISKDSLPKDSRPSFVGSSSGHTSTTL

[11] = Half life in mouse liver microsomes; format: ADME
[12] = target: C-C chemokine receptor type 1 (Homo sapiens, UniProt P32246); experiment: Antagonist activity at human CCR1 assessed as inhibition of MIP1alpha-induced calcium flux; format: functional
Chain of C-C chemokine receptor type 1 (P32246 whole entry): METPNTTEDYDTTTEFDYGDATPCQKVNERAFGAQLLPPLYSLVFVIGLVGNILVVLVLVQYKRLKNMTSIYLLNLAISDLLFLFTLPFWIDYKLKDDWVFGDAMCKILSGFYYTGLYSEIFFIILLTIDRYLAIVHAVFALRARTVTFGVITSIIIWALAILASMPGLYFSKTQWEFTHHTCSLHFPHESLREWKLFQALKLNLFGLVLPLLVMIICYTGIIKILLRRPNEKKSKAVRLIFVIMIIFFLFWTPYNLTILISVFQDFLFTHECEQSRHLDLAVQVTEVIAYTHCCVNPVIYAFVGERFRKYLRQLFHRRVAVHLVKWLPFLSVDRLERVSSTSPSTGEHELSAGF

[13] = target: T1, C-C chemokine receptor type 10; experiment: Antagonist activity at human CCR10 expressed in HEK cells assessed as inhibition of human CCL27-dependent cAMP production; format: functional, cell-based, HEK293
[14] = target: T1, C-C chemokine receptor type 10; experiment: Antagonist activity at human CCR10 expressed in CHOK1 cells coexpressing aequorin/Galphaq assessed as inhibition of human CCL27-dependent calcium flux in presence of coelenterazine H by chemiluminescence assay; format: functional, cell-based, CHO-K1; conditions: read-out: pIC50 (converted)
[15] = target: Histamine H1 receptor (Homo sapiens) (UniProt P35367); experiment: Binding affinity to human histamine H1 receptor at 10 uM relative to control
[16] = target: B2 bradykinin receptor (Homo sapiens) (UniProt P30411); experiment: Binding affinity to human B2 bradykinin receptor at 10 uM relative to control
Chain of B2 bradykinin receptor (Homo sapiens) (P30411 whole entry): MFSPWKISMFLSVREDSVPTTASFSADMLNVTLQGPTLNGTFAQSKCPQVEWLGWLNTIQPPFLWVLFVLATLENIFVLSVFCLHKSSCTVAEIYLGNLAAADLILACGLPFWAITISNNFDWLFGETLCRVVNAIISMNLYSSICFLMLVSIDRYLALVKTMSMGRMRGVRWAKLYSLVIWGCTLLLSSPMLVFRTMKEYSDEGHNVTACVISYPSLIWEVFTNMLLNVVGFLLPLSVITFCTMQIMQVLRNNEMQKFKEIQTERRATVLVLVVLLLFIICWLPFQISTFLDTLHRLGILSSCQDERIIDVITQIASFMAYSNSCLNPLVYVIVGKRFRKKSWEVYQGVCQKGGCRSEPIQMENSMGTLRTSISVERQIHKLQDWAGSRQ

[17] = target: Adrenergic receptor beta (Rattus norvegicus) (UniProt P18090+P10608+P26255); experiment: Binding affinity to rat adrenergic beta receptor at 10 uM relative to control
Rattus norvegicus [18] = organism: Rattus norvegicus; experiment: Binding affinity to rat GABA-B receptor at 10 uM relative to control
[19] = target: Calcitonin gene-related peptide type 1 receptor (Homo sapiens) (UniProt Q16602); experiment: Binding affinity to human CGRP1 receptor at 10 uM relative to control
[20] = target: Type-1 angiotensin II receptor (Homo sapiens) (UniProt P30556); experiment: Binding affinity to human AT1 receptor at 10 uM relative to control
Chain of Type-1 angiotensin II receptor (Homo sapiens) (P30556 whole entry): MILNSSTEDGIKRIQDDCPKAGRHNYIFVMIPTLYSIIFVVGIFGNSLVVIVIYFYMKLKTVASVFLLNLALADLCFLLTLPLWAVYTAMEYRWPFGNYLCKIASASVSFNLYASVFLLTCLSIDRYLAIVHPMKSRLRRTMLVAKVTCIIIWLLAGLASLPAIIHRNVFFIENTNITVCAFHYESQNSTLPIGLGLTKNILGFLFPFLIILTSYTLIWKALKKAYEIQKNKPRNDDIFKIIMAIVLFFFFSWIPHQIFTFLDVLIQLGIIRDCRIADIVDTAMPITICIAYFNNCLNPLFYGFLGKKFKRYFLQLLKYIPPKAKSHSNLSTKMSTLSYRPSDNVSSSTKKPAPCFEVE

[21] = target: 5-hydroxytryptamine receptor 4 (Cavia porcellus) (UniProt O70528); experiment: Binding affinity to guinea pig 5-HT4 receptor at 10 uM relative to control
Chain of 5-hydroxytryptamine receptor 4 (Cavia porcellus) (O70528 whole entry): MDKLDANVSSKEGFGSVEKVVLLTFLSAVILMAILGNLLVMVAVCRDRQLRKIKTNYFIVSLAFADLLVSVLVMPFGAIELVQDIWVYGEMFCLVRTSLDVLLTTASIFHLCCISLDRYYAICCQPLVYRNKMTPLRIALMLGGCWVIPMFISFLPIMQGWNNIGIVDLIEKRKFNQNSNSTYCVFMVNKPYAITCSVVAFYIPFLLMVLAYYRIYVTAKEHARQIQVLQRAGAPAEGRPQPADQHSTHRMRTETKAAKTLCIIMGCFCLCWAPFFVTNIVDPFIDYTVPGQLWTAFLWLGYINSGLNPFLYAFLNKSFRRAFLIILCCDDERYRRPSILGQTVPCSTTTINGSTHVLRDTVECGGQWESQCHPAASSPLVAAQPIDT

[22] = target: Adrenergic receptor alpha-1 (Rattus norvegicus) (UniProt P15823+P23944+P43140); experiment: Binding affinity to rat adrenergic alpha1 receptor at 10 uM relative to control
Rattus norvegicus [23] = organism: Rattus norvegicus; experiment: Binding affinity to rat muscarinic acetylcholine receptor at 10 uM relative to control
Homo sapiens [24] = organism: Homo sapiens; experiment: Binding affinity to human nicotinic acetylcholine receptor at 10 uM relative to control
[25] = target: 5-hydroxytryptamine receptor 2A (Rattus norvegicus) (UniProt P14842); experiment: Binding affinity to rat 5-HT2 receptor at 10 uM relative to control
[26] = target: Histamine H2 receptor (Homo sapiens) (UniProt P25021); experiment: Binding affinity to human histamine H2 receptor at 10 uM relative to control
Chain of Histamine H2 receptor (Homo sapiens) (P25021 whole entry): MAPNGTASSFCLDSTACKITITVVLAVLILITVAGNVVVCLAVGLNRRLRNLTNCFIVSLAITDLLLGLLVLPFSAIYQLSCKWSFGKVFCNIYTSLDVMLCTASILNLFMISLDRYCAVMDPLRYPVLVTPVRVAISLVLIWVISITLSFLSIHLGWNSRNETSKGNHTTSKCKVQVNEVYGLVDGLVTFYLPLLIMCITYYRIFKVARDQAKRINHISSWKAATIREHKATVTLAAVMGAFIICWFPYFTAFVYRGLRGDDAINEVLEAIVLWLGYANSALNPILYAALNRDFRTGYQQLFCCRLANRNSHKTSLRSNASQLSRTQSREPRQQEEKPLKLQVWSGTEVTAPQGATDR

[27] = target: D(2) dopamine receptor (Homo sapiens) (UniProt P14416); experiment: Binding affinity to human dopamine D2L receptor at 10 uM relative to control
Chain of D(2) dopamine receptor (Homo sapiens) (P14416 whole entry): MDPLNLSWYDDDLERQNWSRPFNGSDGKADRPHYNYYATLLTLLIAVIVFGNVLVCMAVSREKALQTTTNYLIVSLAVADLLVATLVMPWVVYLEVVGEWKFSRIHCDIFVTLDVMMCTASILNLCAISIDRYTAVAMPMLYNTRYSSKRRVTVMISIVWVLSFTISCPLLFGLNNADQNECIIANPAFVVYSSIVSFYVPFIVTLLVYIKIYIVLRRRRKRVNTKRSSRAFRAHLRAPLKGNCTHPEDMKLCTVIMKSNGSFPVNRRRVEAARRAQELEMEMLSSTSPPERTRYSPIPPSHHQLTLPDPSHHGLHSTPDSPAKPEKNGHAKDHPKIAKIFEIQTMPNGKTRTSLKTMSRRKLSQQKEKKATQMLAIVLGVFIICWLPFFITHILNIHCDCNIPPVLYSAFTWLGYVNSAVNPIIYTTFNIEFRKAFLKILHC

[28] = target: Adrenergic receptor alpha-2 (Rattus norvegicus) (UniProt P22086+P19328+P22909); experiment: Binding affinity to rat adrenergic alpha2 receptor at 10 uM relative to control
[29] = target: 5-hydroxytryptamine receptor 3A (Homo sapiens) (UniProt P46098); experiment: Binding affinity to human 5-HT3 receptor at 10 uM relative to control
Homo sapiens [30] = organism: Homo sapiens; experiment: Binding affinity to human dopamine D4.2 receptor at 10 uM relative to control
[31] = target: T1, C-C chemokine receptor type 10; experiment: Displacement of human CCL27-Fc from CCR10 expressed in HEK cell membranes by immunochemical binding analysis; parameters: species or system HEK293
[32] = target: D(3) dopamine receptor (Homo sapiens) (UniProt P35462); experiment: Binding affinity to human dopamine D3 receptor at 10 uM relative to control
Chain of D(3) dopamine receptor (Homo sapiens) (P35462 whole entry): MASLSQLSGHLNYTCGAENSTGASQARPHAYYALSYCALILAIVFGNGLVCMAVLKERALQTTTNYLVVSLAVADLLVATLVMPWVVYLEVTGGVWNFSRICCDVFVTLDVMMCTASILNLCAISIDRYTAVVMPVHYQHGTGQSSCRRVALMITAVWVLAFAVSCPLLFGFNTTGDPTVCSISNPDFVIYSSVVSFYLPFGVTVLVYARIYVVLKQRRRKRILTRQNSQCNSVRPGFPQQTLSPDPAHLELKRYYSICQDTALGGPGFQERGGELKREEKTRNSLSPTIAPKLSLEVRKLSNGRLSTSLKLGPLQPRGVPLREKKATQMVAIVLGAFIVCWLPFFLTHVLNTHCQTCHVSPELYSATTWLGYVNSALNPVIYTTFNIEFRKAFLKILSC

Rattus norvegicus [33] = organism: Rattus norvegicus; experiment: Binding affinity to rat 5-HT1 receptor at 10 uM relative to control
[34] = target: D(1A) dopamine receptor (Homo sapiens) (UniProt P21728); experiment: Binding affinity to human dopamine D1 receptor at 10 uM relative to control
[35] = target: C-C chemokine receptor type 6 (Homo sapiens, UniProt P51684); experiment: Antagonist activity at human CCR6 assessed as inhibition of CCL20/MIP-3alpha-induced calcium flux; format: functional
Chain of C-C chemokine receptor type 6 (P51684 whole entry): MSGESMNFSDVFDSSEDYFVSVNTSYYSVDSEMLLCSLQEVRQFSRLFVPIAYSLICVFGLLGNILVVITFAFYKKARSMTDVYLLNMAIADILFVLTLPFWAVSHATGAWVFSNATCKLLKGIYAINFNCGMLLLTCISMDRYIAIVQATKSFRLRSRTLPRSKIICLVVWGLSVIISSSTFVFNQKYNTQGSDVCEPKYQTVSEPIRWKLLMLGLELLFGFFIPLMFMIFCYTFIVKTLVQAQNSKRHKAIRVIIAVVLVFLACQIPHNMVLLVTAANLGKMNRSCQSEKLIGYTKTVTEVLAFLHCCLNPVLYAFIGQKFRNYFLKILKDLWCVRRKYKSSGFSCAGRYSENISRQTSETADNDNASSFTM

[36] = target: T1, C-C chemokine receptor type 10; experiment: Reversible inhibition of human CCL27-Fc binding to CCR10 expressed in HEK cell membranes by immunochemical binding assay; parameters: species or system HEK293

Chain of C-X-C chemokine receptor type 3 (P49682 whole entry): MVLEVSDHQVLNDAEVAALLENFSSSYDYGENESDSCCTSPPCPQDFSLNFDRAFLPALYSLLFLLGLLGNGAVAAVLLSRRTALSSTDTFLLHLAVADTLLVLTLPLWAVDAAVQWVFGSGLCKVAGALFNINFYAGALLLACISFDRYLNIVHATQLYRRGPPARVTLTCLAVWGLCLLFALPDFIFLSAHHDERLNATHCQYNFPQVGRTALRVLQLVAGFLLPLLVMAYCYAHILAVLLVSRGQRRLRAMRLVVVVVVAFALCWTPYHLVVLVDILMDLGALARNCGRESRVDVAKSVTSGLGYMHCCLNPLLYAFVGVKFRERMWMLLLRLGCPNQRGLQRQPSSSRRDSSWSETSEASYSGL

CC1CCN(C(=O)C(CCn2cccc2C#N)NS(=O)(=O)c2cccc3[nH]ccc23)CC1 (racemic)
IC50 [1]: > 10000 nM
IC50 [2]: 10 nM
IC50 (Histamine H4 receptor): > 10000 nM
IC50 [3]: > 10000 nM
IC50 [4]: 1.26 nM
IC50 [5]: 1 nM
hepatic extraction ratio [6]: > 0.88
IC50 [7]: 63.1 nM
IC50 [8]: > 10000 nM
IC50 [9]: 0.398 nM
IC50 [10]: > 10000 nM
half-life [11]: < 3 min
IC50 [12]: > 10000 nM
IC50 [13]: 25.1 nM
IC50 [14]: 2 nM

CC1CCN(C(=O)C(CCn2cccc2C#N)NS(=O)(=O)c2cc(Cl)c(N)c(Cl)c2)CC1 (stereo not given)
Activity [15]: < 10%
Activity [16]: < 10%
Activity [17]: 12%
IC50 [1]: > 10000 nM
Activity (Rattus norvegicus [18]): 10%
IC50 [2]: 20 nM
IC50 (Histamine H4 receptor): > 10000 nM
IC50 [3]: > 10000 nM
IC50 [4]: 12.6 nM
Activity [19]: < 10%
IC50 [5]: 12.6 nM
Activity [20]: < 10%
IC50 [7]: 1580 nM
Activity [21]: 28%
IC50 [8]: > 10000 nM
IC50 [9]: 2 nM
Activity [22]: < 10%
IC50 [10]: > 10000 nM
Activity (Rattus norvegicus [23]): 11%
Activity (Homo sapiens [24]): < 10%
Activity [25]: < 10%
Activity [26]: 12%
Activity [27]: < 10%
Activity [28]: < 10%
Activity [29]: < 10%
Activity (Homo sapiens [30]): < 10%
IC50 [31]: 3.4 nM
Activity [32]: 11%
Activity (Rattus norvegicus [33]): 11%
Activity [34]: < 10%
IC50 [35]: > 10000 nM
IC50 [36]: 3.4 nM
IC50 [12]: > 10000 nM
IC50 [13]: 158 nM
IC50 [14]: 20 nM
